For 27 molecules, IC50 results are on record in patent US8461160B2, “Dihydropyrimidinones” (Hoffmann-La Roche, Inc., priority 2009, dated 2013).

The term IC50 denotes the concentration that inhibits the measured activity by half. Higher therefore signals lower potency.

The assay addresses T1, BACE2 (Homo sapiens, UniProt Q9Y5Z0).
T1 construct: BACE2 enzyme ectodomain (derived from plasmid “pET17b-T7-hu proBACE2”) was prepared as described in Ostermann et al; T7 tag (N); made in house
T1 sequence (Q9Y5Z0 21-473 limits assumed): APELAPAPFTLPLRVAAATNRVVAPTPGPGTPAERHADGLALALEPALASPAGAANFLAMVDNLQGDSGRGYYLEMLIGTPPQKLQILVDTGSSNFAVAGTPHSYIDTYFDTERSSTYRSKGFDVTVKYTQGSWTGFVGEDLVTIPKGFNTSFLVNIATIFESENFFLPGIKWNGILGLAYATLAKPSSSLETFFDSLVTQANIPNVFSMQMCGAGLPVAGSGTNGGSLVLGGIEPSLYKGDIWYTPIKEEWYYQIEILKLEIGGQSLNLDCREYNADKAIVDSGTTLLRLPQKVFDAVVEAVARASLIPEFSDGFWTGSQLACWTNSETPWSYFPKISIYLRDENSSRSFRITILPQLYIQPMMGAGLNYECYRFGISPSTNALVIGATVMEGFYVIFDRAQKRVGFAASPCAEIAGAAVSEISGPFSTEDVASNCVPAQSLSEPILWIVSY
The experiment in a line: Fluorescent-peptide cleavage assay for BACE2 inhibition. The format is biochemical. Conditions: BACE2 enzyme ectodomain, fluorescent peptide WS EVNLD AEFRC-MR121, assay buffer pH 4.5, room temperature. The gist of the method:
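Pro-enzyme BACE2 was activated at 80 nM for 1 h at room temperature in 100 mM Na-acetate, 20 mM EDTA, 0.05% BSA, pH 4.5, then preincubated 10 min with compound. IC50 from sigmoidal dose-response fit.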
The molecule `CCOc1cc(C(F)(F)F)cnc1C(=O)Nc1cccc([C@]2(C)CC(=O)N(C)C(N)=N2)c1` [Example 74, 3-Ethoxy-5-trifluoromethyl-pyridine-2-carboxylic acid [3-((S)-2-amino-1,4-dimethyl-6-oxo-1,4,5,6-tetrahydro-pyrimidin-4-yl)-phenyl]-amide] had a half-maximal inhibitory concentration (IC50) of 79 nM. The result for `Cc1cc(Cl)cnc1C(=O)Nc1cccc([C@]2(C)CC(=O)N(C)C(N)=N2)c1` [Example 75, 5-Chloro-3-methyl-pyridine-2-carboxylic acid [3-((S)-2-amino-1,4-dimethyl-6-oxo-1,4,5,6-tetrahydro-pyrimidin-4-yl)-phenyl]-amide] reads 17 nM. The result for `CN1C(=O)C[C@@](C)(c2cccc(NC(=O)c3ccc(-n4ccc(C(F)(F)F)n4)cn3)c2)N=C1N` [Example 76, 5-(3-Trifluoromethyl-pyrazol-1-yl)-pyridine-2-carboxylic acid [3-((S)-2-amino-1,4-dimethyl-6-oxo-1,4,5,6-tetrahydro-pyrimidin-4-yl)-phenyl]-amide] reads 300 nM; that for `Cc1nn(C)cc1C(=O)Nc1cccc([C@]2(C)CC(=O)N(C)C(N)=N2)c1` [Example 77, 1,3-Dimethyl-1H-pyrazole-4-carboxylic acid [3-((S)-2-amino-1,4-dimethyl-6-oxo-1,4,5,6-tetrahydro-pyrimidin-4-yl)-phenyl]-amide], 1580 nM; that for `CN1C(=O)C[C@@](C)(c2cccc(NC(=O)c3cc4cccnc4[nH]3)c2)N=C1N` [Example 78, 1H-Pyrrolo[2,3-b]pyridine-2-carboxylic acid [3-((S)-2-amino-1,4-dimethyl-6-oxo-1,4,5,6-tetrahydro-pyrimidin-4-yl)-phenyl]-amide], 800 nM.

As to `Cc1cc(C(=O)Nc2cccc([C@]3(C)CC(=O)N(C)C(N)=N3)c2)n(C2CC2)n1` [Example 79, 2-Cyclopropyl-5-methyl-2H-pyrazole-3-carboxylic acid [3-((S)-2-amino-1,4-dimethyl-6-oxo-1,4,5,6-tetrahydro-pyrimidin-4-yl)-phenyl]-amide], the half-maximal inhibitory concentration (IC50) worked out at 190 nM.

Consider `CN1C(=O)C[C@@](C)(c2cccc(NC(=O)c3ccccc3-c3ncc[nH]3)c2)N=C1N` [Example 80, N-[3-((S)-2-Amino-1,4-dimethyl-6-oxo-1,4,5,6-tetrahydro-pyrimidin-4-yl)-phenyl]-2-(1H-imidazol-2-yl)-benzamide], for which inhibition was half-maximal at 2100 nM (IC50).

Molecule `CN1C(=O)C[C@@](C)(c2cccc(NC(=O)c3ccon3)c2)N=C1N` [Example 81, Isoxazole-3-carboxylic acid [3-((S)-2-amino-1,4-dimethyl-6-oxo-1,4,5,6-tetrahydro-pyrimidin-4-yl)-phenyl]-amide] displayed a half-maximal inhibitory concentration (IC50) of 170 nM. The result for `Cc1cc(C(=O)Nc2cccc([C@]3(C)CC(=O)N(C)C(N)=N3)c2)no1` [Example 82, 5-Methyl-isoxazole-3-carboxylic acid [3-((S)-2-amino-1,4-dimethyl-6-oxo-1,4,5,6-tetrahydro-pyrimidin-4-yl)-phenyl]-amide] reads 590 nM; that for `CCc1ccc(C(=O)Nc2cccc([C@]3(C)CC(=O)N(C)C(N)=N3)c2)nc1` [Example 83, 5-Ethyl-pyridine-2-carboxylic acid [3-((S)-2-amino-1,4-dimethyl-6-oxo-1,4,5,6-tetrahydro-pyrimidin-4-yl)-phenyl]-amide], 40 nM.

For `Cc1cnc(C(=O)Nc2cccc([C@]3(C)CC(=O)N(C)C(N)=N3)c2)[nH]1` [Example 84, 4-Methyl-1H-imidazole-2-carboxylic acid [3-((S)-2-amino-1,4-dimethyl-6-oxo-1,4,5,6-tetrahydro-pyrimidin-4-yl)-phenyl]-amide], the IC50 came to 390 nM. This IC50 lies about 9.8-fold higher than the previous one. Molecule `CC[C@@]1(c2cccc(NC(=O)c3ccc(F)cn3)c2)CC(=O)N(C)C(N)=N1` [Example 85, 5-Fluoro-pyridine-2-carboxylic acid [3-((S)-2-amino-4-ethyl-1-methyl-6-oxo-1,4,5,6-tetrahydro-pyrimidin-4-yl)-phenyl]-amide] displayed an IC50 of 300 nM.

As to `CC[C@@]1(c2cccc(NC(=O)c3ccc(C(F)(F)F)cn3)c2)CC(=O)N(C)C(N)=N1` [Example 86, 5-Trifluoromethyl-pyridine-2-carboxylic acid [3-((S)-2-amino-4-ethyl-1-methyl-6-oxo-1,4,5,6-tetrahydro-pyrimidin-4-yl)-phenyl]amide], the IC50 came to 250 nM. The value for `CCC[C@@]1(c2cccc(NC(=O)c3ccc(Cl)cn3)c2)CC(=O)N(C)C(N)=N1` [Example 87, 5-Chloro-pyridine-2-carboxylic acid [3-((S)-2-amino-1-methyl-6-oxo-4-propyl-1,4,5,6-tetrahydro-pyrimidin-4-yl)-phenyl]-amide] was 170 nM; that for `CCC[C@@]1(c2cccc(NC(=O)c3ccccn3)c2)CC(=O)N(C)C(N)=N1` [Example 88, Pyridine-2-carboxylic acid [3-((S)-2-amino-1-methyl-6-oxo-4-propyl-1,4,5,6-tetrahydro-pyrimidin-4-yl)-phenyl]-amide] was 1780 nM; that for `CCC[C@@]1(c2cccc(NC(=O)c3ccn(C)n3)c2)CC(=O)N(C)C(N)=N1` [Example 89, 1-Methyl-1H-pyrazole-3-carboxylic acid [3-((S)-2-amino-1-methyl-6-oxo-4-propyl-1,4,5,6-tetrahydro-pyrimidin-4-yl)-phenyl]-amide] was 4750 nM. The value for `CCC[C@@]1(c2cccc(NC(=O)c3coc(C)n3)c2)CC(=O)N(C)C(N)=N1` [Example 90, 2-Methyl-oxazole-4-carboxylic acid [3-((S)-2-amino-1-methyl-6-oxo-4-propyl-1,4,5,6-tetrahydro-pyrimidin-4-yl)-phenyl]-amide] was 1110 nM.

Take `C[C@H]1C(=O)N(C)C(N)=N[C@]1(C)c1cccc(NC(=O)c2ccc(Cl)cn2)c1` [Example 91, 5-Chloro-pyridine-2-carboxylic acid [3-((4S,5R)-2-amino-1,4,5-trimethyl-6-oxo-1,4,5,6-tetrahydro-pyrimidin-4-yl)-phenyl]amide]: the IC50 was 17 nM. For `CC[C@H]1C(=O)N(C)C(N)=N[C@]1(C)c1cccc(NC(=O)c2ccc(Cl)cn2)c1` [Example 92, 5-Chloro-pyridine-2-carboxylic acid [3-((4S,5R)-2-amino-5-ethyl-1,4-dimethyl-6-oxo-1,4,5,6-tetrahydro-pyrimidin-4-yl)-phenyl]-amide], half-maximal inhibition (IC50) required 24 nM.

Take `COc1cccnc1C(=O)Nc1cccc([C@@]2(C)N=C(N)N(C)C(=O)C2(C)C)c1` [Example 93, 3-Methoxy-pyridine-2-carboxylic acid [3-((R)-2-amino-1,4,5,5-tetramethyl-6-oxo-1,4,5,6-tetrahydro-pyrimidin-4-yl)-phenyl]amide]: 158 nM corresponded to half-maximal inhibition (IC50). With `CN1C(=O)C(C)(C)[C@@](C)(c2cccc(NC(=O)c3ccc(Cl)cn3)c2)N=C1N` [Example 94, 5-Chloro-pyridine-2-carboxylic acid [3-((R)-2-amino-1,4,5,5-tetramethyl-6-oxo-1,4,5,6-tetrahydro-pyrimidin-4-yl)-phenyl]amide], inhibition was half-maximal at 20 nM (IC50). Turning to `Cc1cc(Cl)cnc1C(=O)Nc1cccc([C@@]2(C)N=C(N)N(C)C(=O)C2(C)C)c1` [Example 95, 5-Chloro-3-methyl-pyridine-2-carboxylic acid [3-((R)-2-amino-1,4,5,5-tetramethyl-6-oxo-1,4,5,6-tetrahydro-pyrimidin-4-yl)-phenyl]amide], the concentration for half-maximal inhibition (IC50) came to 19 nM. Consider `CN1C(=O)C(C)(C)[C@@](C)(c2cccc(NC(=O)c3nccc4ccsc34)c2)N=C1N` [Example 96, Thieno[2,3-c]pyridine-7-carboxylic acid [3-((R)-2-amino-1,4,5,5-tetramethyl-6-oxo-1,4,5,6-tetrahydro-pyrimidin-4-yl)-phenyl]amide], for which inhibition was half-maximal at 370 nM (IC50). Turning to `CN1C(=O)C(C)(C)[C@@](C)(c2cccc(NC(=O)c3ncccc3-c3ccccc3Cl)c2)N=C1N` [Example 97, 3-(2-Chloro-phenyl)-pyridine-2-carboxylic acid [3-((R)-2-amino-1,4,5,5-tetramethyl-6-oxo-1,4,5,6-tetrahydro-pyrimidin-4-yl)-phenyl]amide], the IC50 stood at 180 nM. The result for `CN1C(=O)C(C)(C)[C@@](C)(c2cc(NC(=O)c3ccn(C)n3)ccc2F)N=C1N` [Example 98, 1-Methyl-1H-pyrazole-3-carboxylic acid [3-((S)-2-amino-1,4,5,5-tetramethyl-6-oxo-1,4,5,6-tetrahydro-pyrimidin-4-yl)-4-fluoro-phenyl]amide] reads 35 nM.

For the molecule `Cc1cc(Cl)cnc1C(=O)Nc1ccc(F)c([C@@]2(C)N=C(N)N(C)C(=O)C2(C)C)c1` [Example 99, 5-Chloro-3-methyl-pyridine-2-carboxylic acid [3-((S)-2-amino-1,4,5,5-tetramethyl-6-oxo-1,4,5,6-tetrahydro-pyrimidin-4-yl)-4-fluoro-phenyl]amide], the IC50 amounted to 13 nM. Turning to `CN1C(=O)C(C)(C)[C@@](C)(c2cc(NC(=O)c3ccccn3)ccc2F)N=C1N` [Example 100, Pyridine-2-carboxylic acid [3-((S)-2-amino-1,4,5,5-tetramethyl-6-oxo-1,4,5,6-tetrahydro-pyrimidin-4-yl)-4-fluoro-phenyl]amide], the concentration for half-maximal inhibition (IC50) came out at 43 nM.
